This note sets out measurements from patent publication US8084479B2, “Thiazole compounds and methods of use” (Amgen Inc., priority 2006, dated 2011).

Broadly, the pIC50 is −log10 of the IC50, conventionally taken in molar units. Read a high pIC50 as a low IC50.

Molecules are shown by their SMILES. pIC50: −log10 of the molar value. Structures can show the parent of a compound that is named as a salt. Where only a bound is given, the exact number is not on record here.

Sequence of PKBα (P31749 118-480 limits assumed): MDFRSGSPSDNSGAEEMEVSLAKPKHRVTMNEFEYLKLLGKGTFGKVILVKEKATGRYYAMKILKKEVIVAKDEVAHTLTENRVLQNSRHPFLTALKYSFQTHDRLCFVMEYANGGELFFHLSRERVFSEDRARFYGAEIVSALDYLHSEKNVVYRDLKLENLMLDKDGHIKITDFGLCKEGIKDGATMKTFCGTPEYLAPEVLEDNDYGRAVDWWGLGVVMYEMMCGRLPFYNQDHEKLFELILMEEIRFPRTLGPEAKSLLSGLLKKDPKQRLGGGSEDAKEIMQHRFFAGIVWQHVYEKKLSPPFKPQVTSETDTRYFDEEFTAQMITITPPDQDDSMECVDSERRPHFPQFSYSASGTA

The assay deals with PKBα (Homo sapiens, UniProt P31749). The experiment in a line: PKB kinase assay (P33-labeled ATP, peptide substrate, filter plate). Conditions: PKBα enzyme (full length or kinase domain with pleckstrin domain deleted). It counts as biochemical. From the text:
The kinase assay for evaluating PKB activity comprises active PKB enzymes, a PKB specific substrate, and P^33-labeled ATP. […] The phosphorylated substrate was captured by a phosphocellulose membrane filter plate (MLLIPORE) and measured by a Wallac Microbeta liquid scintillation counter (Perkin Elmer).
In turn, `COCc1nc(NC[C@@H](N)Cc2ccc(C(F)(F)F)cc2)sc1-c1ccc2[nH]c(=O)n(C)c2c1` [Example 58, 6-(2-((S)-2-amino-3-(4-(trifluoromethyl)phenyl)propylamino)-4-(methoxymethyl)thiazol-5-yl)-1-methyl-1H-benzo[d]imidazol-2(3H)-one] showed a negative-log IC50 (pIC50) of 6.00 to 7.30.
Next, `COCc1nc(NC[C@@H](N)Cc2ccc(C(F)(F)F)cc2)sc1-c1ccc2[nH]c(=O)oc2c1` [Example 59, 6-(2-((S)-2-amino-3-(4-(trifluoromethyl)phenyl)propylamino)-4-(methoxymethyl)thiazol-5-yl)benzo[d]oxazol-2(3H)-one]: more than 7.30; `N[C@H](CNc1nc(-c2ccccn2)c(-c2nc3ccncc3s2)s1)Cc1ccc(C(F)(F)F)cc1` [Example 60, N—((S)-2-amino-3-(4-(trifluoromethyl)phenyl)propyl)-4-(pyridin-2-yl)-5-(thiazolo[5,4-c]pyridin-2-yl)thiazol-2-amine]: 5.00 to 6.00.
As for `N#Cc1nc(NC[C@@H](N)Cc2ccc(C(F)(F)F)cc2)sc1-c1ccc2c(c1)CC(=O)N2` [Example 61, 2-((S)-2-amino-3-(4-(trifluoromethyl)phenyl)propylamino)-5-(2-oxoindolin-5-yl)thiazole-4-carbonitrile], the figure is 5.00 to 6.00; as for `Cn1c(=O)[nH]c2ccc(-c3sc(NC[C@@H](N)Cc4ccc(C(F)(F)F)cc4)nc3C#N)cc21` [Example 62, 2-((S)-2-amino-3-(4-(trifluoromethyl)phenyl)propylamino)-5-(3-methyl-2-oxo-2,3-dihydro-1H-benzo[d]imidazol-5-yl)thiazole-4-carbonitrile], 5.00 to 6.00.
Next, `N#Cc1nc(NC[C@@H](N)Cc2ccc(C(F)(F)F)cc2)sc1-c1ccc2cnccc2c1` [Example 63, 2-((S)-2-amino-3-(4-(trifluoromethyl)phenyl)propylamino)-5-(isoquinolin-6-yl)thiazole-4-carbonitrile]: 5.00 to 6.00; `N[C@H](CNc1ncc(-c2ccc3cnncc3c2)s1)Cc1ccc(C(F)(F)F)cc1` [Example 64, N—((S)-2-amino-3-(4-(trifluoromethyl)phenyl)propyl)-5-(phthalazin-6-yl)thiazol-2-amine]: 6.00 to 7.30.
For the compound `N[C@H](CNc1ncc(-c2ccc3c(O)nncc3c2)s1)Cc1ccc(C(F)(F)F)cc1` [Example 65, 6-(2-((S)-2-amino-3-(4-(trifluoromethyl)phenyl)propylamino)thiazol-5-yl)phthalazin-1-ol], the negative logarithm of the IC50 (pIC50) was 6.00 to 7.30.
As for `N[C@H](CNc1ncc(-c2ccc3cnccc3c2)s1)Cc1cccc(Cl)c1` [Example 66, N—((S)-2-amino-3-(3-chlorophenyl)propyl)-5-(isoquinolin-6-yl)thiazol-2-amine], the figure is more than 7.30.
As for `COc1ccc(C[C@H](N)CNc2ncc(-c3ccc4c(c3)CC(=O)N4)s2)cc1` [Example 67, 5-(2-((S)-2-amino-3-(4-methoxyphenyl)propylamino)thiazol-5-yl)indolin-2-one], the figure is 6.00 to 7.30; as for `N[C@H](CNc1ncc(-c2ccc3cnccc3n2)s1)Cc1ccc(C(F)(F)F)cc1` [Example 68, N—((S)-2-amino-3-(4-(trifluoromethyl)phenyl)propyl)-5-(1,6-naphthyridin-2-yl)thiazol-2-amine], more than 7.30; as for `COCc1nc(NC[C@@H](N)Cc2ccc(C(F)(F)F)cc2)sc1-c1ccc2c(c1)CC(=O)N2` [Example 69, 5-(2-((S)-2-amino-3-(4-(trifluoromethyl)phenyl)propylamino)-4-(methoxymethyl)thiazol-5-yl)indolin-2-one], more than 7.30.
For `CC1C(=O)Nc2ccc(-c3cnc(NC[C@@H](N)Cc4ccccc4)s3)cc21` (stereo partly drawn) [Example 70, 5-(2-((S)-2-amino-3-phenylpropylamino)thiazol-5-yl)-3-methylindolin-2-one], the negative-log IC50 (pIC50) is 5.00 to 6.00.
Next, `COCc1nc(NC[C@@H](N)Cc2ccc(C(F)(F)F)cc2)sc1-c1ccc2cnccc2n1` [Example 71, N—((S)-2-amino-3-(4-(trifluoromethyl)phenyl)propyl)-4-(methoxymethyl)-5-(1,6-naphthyridin-2-yl)thiazol-2-amine]: more than 7.30.
Next, `N[C@H](CNc1ncc(-c2ccc3c(c2)CC(=O)N3)s1)Cc1c[nH]c2ccccc12` [Example 74, 5-(2-((S)-2-amino-3-(1H-indol-3-yl)propylamino)thiazol-5-yl)indolin-2-one ditrifluoroacetate]: 5.00 to 6.00.
As for `Nc1cc2cc(-c3cnc(NC[C@@H](N)Cc4ccc(C(F)(F)F)cc4)s3)ccc2cn1` [Example 75, 6-(2-((S)-2-Amino-3-(4-(trifluoromethyl)phenyl)propylamino)thiazol-5-yl)isoquinolin-3-amine], the figure is more than 7.30.
The compound `Nc1cc2cc(-c3cnc(NC[C@@H](N)Cc4ccc(Cl)cc4)s3)ccc2cn1` [Example 76, 6-(2-((S)-2-Amino-3-(4-chlorophenyl)propylamino)thiazol-5-yl)isoquinolin-3-amine] had a negative-log IC50 (pIC50) of more than 7.30.
Next, `CCOCc1nc(NC[C@@H](N)Cc2ccc(Cl)cc2)sc1-c1nc2ccncc2s1` [Example 77, N—((S)-2-amino-3-(4-chlorophenyl)propyl)-4-(ethoxymethyl)-5-(thiazolo[5,4-c]pyridin-2-yl)thiazol-2-amine]: 6.00 to 7.30; `COc1ccc(C[C@H](N)CNc2ncc(-c3ccc4[nH]c(=O)oc4c3)s2)cc1` [Example 78, 6-(2-((S)-2-amino-3-(4-methoxyphenyl)propylamino)thiazol-5-yl)benzo[d]oxazol-2(3H)-one]: 6.00 to 7.30; `CC(C)(O)C#Cc1nc(NC[C@@H](N)Cc2ccc(C(F)(F)F)cc2)sc1-c1ccc2cnccc2c1` [Example 79, 4-(2-((S)-2-Amino-3-(4-(trifluoromethyl)phenyl)propylamino)-5-(isoquinolin-6-yl)thiazole-4-yl)-2-methylbut-3-yn-2-ol]: 6.00 to 7.30.
As for `N[C@H](CNc1nc(O)c(-c2ccc(F)c(F)c2)s1)Cc1ccc(Cl)cc1` [Example 80, 2-((S)-2-Amino-3-(4-chlorophenyl)propylamino)-5-(3,4-difluorophenyl)thiazol-4-ol dihydrochloride], the figure is 6.00 to 7.30; as for `CN(C)Cc1nc(NC[C@@H](N)Cc2ccc(C(F)(F)F)cc2)sc1-c1ccc2cnccc2c1` [Example 81, N—((S)-2-Amino-3-(4-(trifluoromethyl)phenyl)propyl)-4-((dimethylamino)methyl)-5-(isoquinolin-6-yl)thiazol-2-amine], 6.00 to 7.30.
As for `Cn1c(=O)[nH]c2ccc(-c3cnc(NC[C@@H](N)Cc4cccc(C(F)(F)F)c4)s3)cc21` [Example 82, 6-(2-((S)-2-Amino-3-(3-(trifluoromethyl)phenyl)-propylamino)thiazol-5-yl)-1-methyl-1H-benzo[d]imidazol-2(3H)-one], the figure is 6.00 to 7.30; as for `N[C@H](CNc1ncc(-c2ccc3cnccc3c2)s1)Cc1ccc(C(F)(F)F)c(F)c1` [Example 83, N—((S)-2-Amino-3-(3-fluoro-4-(trifluoromethyl)phenyl)propyl)-5-(isoquinolin-6-yl)thiazol-2-amine], more than 7.30; as for `N[C@H](CNc1ncc(-c2ccc3[nH]c(=O)oc3c2)s1)Cc1ccc(Cl)c(F)c1` [Example 84, 6-(2-((S)-2-Amino-3-(4-chloro-3-fluorophenyl)propylamino)thiazol-5-yl)benzo[d]oxazol-2(3H)-one], more than 7.30.
With `N[C@H](CNc1ncc(-c2ccc3cnccc3c2)s1)Cc1ccc(Cl)c(F)c1` [Example 85, N—((S)-2-Amino-3-(4-chloro-3-fluorophenyl)propyl)-5-(isoquinolin-6-yl)thiazol-2-amine], the pIC50 is more than 7.30.
Next, `N[C@H](CNc1ncc(-c2ccc3c(c2)CC(=O)N3)s1)Cc1ccc(Cl)c(F)c1` [Example 86, 5-(2-((S)-2-Amino-3-(4-chloro-3-fluorophenyl)propylamino)thiazol-5-yl)indolin-2-one]: more than 7.30; `Cn1c(=O)[nH]c2ccc(-c3cnc(NC[C@@H](N)Cc4ccc(Cl)c(F)c4)s3)cc21` [Example 87, 6-(2-((S)-2-Amino-3-(4-chloro-3-fluorophenyl)propylamino)thiazol-5-yl)-1-methyl-1H-benzo[d]imidazol-2(3H)-one]: more than 7.30.
As for `C[C@@H](c1ccccc1)[C@H](N)CNc1ncc(-c2ccc3[nH]c(=O)oc3c2)s1` [Example 88, 6-(2-((2S,3S)-2-Amino-3-phenylbutylamino)thiazol-5-yl)benzo[d]oxazol-2(3H)-one], the figure is 5.00 to 6.00.
Next, `C[C@@H](c1ccccc1)[C@H](N)CNc1ncc(-c2ccc3[nH]c(=O)n(C)c3c2)s1` [Example 89, 6-(2-((2S,3S)-2-Amino-3-phenylbutylamino)thiazol-5-yl)-1-methyl-1H-benzo[d]imidazol-2(3H)-one]: 5.00 to 6.00.
`C[C@@H](c1ccccc1)[C@H](N)CNc1ncc(-c2ccc3c(c2)CC(=O)N3)s1` [Example 90, 5-(2-((2S,3S)-2-Amino-3-phenylbutylamino)thiazol-5-yl)indolin-2-one] gave a negative-log IC50 (pIC50) of 5.00 to 6.00.
`C[C@@H](c1ccccc1)[C@H](N)CNc1ncc(-c2ccc3cnccc3c2)s1` [Example 91, N-((2S,3S)-2-Amino-3-phenylbutyl)-5-(isoquinolin-6-yl)thiazol-2-amine] showed a negative logarithm of the IC50 (pIC50) of 6.00 to 7.30.
The compound `C[C@@H](c1ccc(C(F)(F)F)cc1)[C@H](N)CNc1ncc(-c2ccc3c(c2)CC(=O)N3)s1` [Example 92, 5-(2-((2S,3S)-2-Amino-3-(4-(trifluoromethyl)phenyl)butylamino)thiazol-5-yl)indolin-2-one methane sulfonic acid salt] showed a pIC50 of more than 7.30.
As for `C[C@@H](c1ccc(C(F)(F)F)cc1)[C@H](N)CNc1ncc(-c2ccc3[nH]c(=O)n(C)c3c2)s1` [Example 93, 6-(2-((2S,3S)-2-amino-3-(4-(trifluoromethyl)phenyl)butylamino)thiazol-5-yl)-1-methyl-1H-benzo[d]imidazol-2(3H)-one], the figure is 6.00 to 7.30.
